Measured values: patent US20220162191A1, “SMALL MOLECULE MODULATORS OF IL-17” (LEO PHARMA A/S, priority 2019, published 2022)

biological target: T1, human IL-17AA (Homo sapiens, UniProt Q16552); assay: IL-8 release assay in human epithelial keratinocytes adult (HEKa); type: cell-based; conditions: 3 ng/ml human IL-17AA + 10 ng/ml human TNFalpha, 68-72 h, IL-8 by HTRF, read-out: Rel EC50 L-8 release assay
T1 construct: host or cells: HEK (human embryonic kidney) cells
T1 sequence (Q16552 24-155) 1: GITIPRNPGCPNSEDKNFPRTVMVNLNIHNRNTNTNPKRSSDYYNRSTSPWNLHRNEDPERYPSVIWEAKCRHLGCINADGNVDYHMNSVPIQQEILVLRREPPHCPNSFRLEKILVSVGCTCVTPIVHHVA
T1 sequence (Q16552 24-155) 2: T1 sequence (Q16552 24-155) 1
Protocol: Example: IL-8 release assay in human epithelial keratinocytes adult (HEKa) Keratinocytes were seeded at 3500 cells/well in 384-well ViewPlates (Perkin Elmer) in Epilife medium (Thermo Fisher) containing human keratinocyte growth supplement (HKGS) without hydrocortisone and incubated in a humid incubator at 37° C., 5% CO2, overnight. The following day growth medium was removed and 25 μl fresh Epilife 10 medium added. 75 nl test compound in 100% DMSO was added into each well reserved
for test compounds, by the use of acoustic pipetting. The remaining wells received an equal volume of DMSO only, as vehicle control, or terfenadine in DMSO, as a positive control for any cytotoxic compounds. Subsequently, another 25 μl Epilife medium was added to each well. Finally, wells containing test compounds and wells prepared to yield 15 maximum stimulation received 25 μl of 9 ng/ml recombinant, human embryonic kidney cell (HEK)-derived human IL-17AA+30 ng/ml human TNF-alpha, in Epilife medium. Wells prepared to define 100% inhibition of IL-17 effects received 25 μl of 30 ng/ml human TNF-alpha alone, in Epilife medium. Final concentrations were 3 ng/ml HEKhuman IL-17AA+10 ng/ml human TNFalpha (maximum stimulation) and 10 ng/ml 20 human TNFalpha alone (100% inhibition, Emax), respectively. Cells were incubated for 68-72 h in the incubator. IL-8 released from the cells was measured by the use of a commercial homogenous time-resolved fluorescence (HTRF) assay (CisBio). 2 μl cell culture supernatant was transferred to a 384-well Proxiplate. 5 μl HTRF reagent was added and the plates incubated sealed in the dark for 3-22 h at room temperature. Time resolved fluorescence was read at 665 vs 620 nm, with excitation at 320 nm, and IL-8 levels calculated as percent of controls. Reduction of the amount of secreted IL-8 indicates decreased IL-17 signaling. Concentration response curves were fitted by the use of a four-parameter logistic equation. Relative IC50 and Emax were reported from 5 curves showing acceptable fit (r2>0.9). Cytotoxicity was measured in the cell-containing
Compounds of the present invention were tested in the IL-8 release assay in human epithelial keratinocytes.

SMILES	EC50 [nM]
CC(C)n1cc(-c2ccc3c(c2)[C@H]([C@H](NC(=O)c2ccnn2C)C(=O)Nc2ccc(-c4cncn4C)cc2)CC3)ccc1=O [Example 3, N-[(1S)-1-[(1R)-6-(1-isopropyl-6-oxo-3-pyridyl)indan-1-yl]-2-[4-(3-methylimidazol-4-yl)anilino]-2-oxo-ethyl]-2-methyl-pyrazole-3-carboxamide]	100 to 1000
Cc1n[nH]c(C)c1-c1ccc(NC(=O)[C@@H](NC(=O)C2(F)CC2)[C@@H]2CCc3ccc(-c4ccc(=O)n(C(C)C)c4)cc32)cc1 [Example 6, N-[(1S)-2-[4-(3,5-dimethyl-1H-pyrazol-4-yl)anilino]-1-[(1R)-6-(1-isopropyl-6-oxo-3-pyridyl)indan-1-yl]-2-oxo-ethyl]-1-fluoro-cyclopropanecarboxamide]	100 to 1000
Cc1n[nH]c(C)c1-c1ccc(NC(=O)[C@@H](NC(=O)C2(F)CC2)[C@@H]2CCc3ccc(-c4cnn(C(C)(C)CO)c4)cc32)cc1 [Example 12, N-[(1S)-2-[4-(3,5-dimethyl-1H-pyrazol-4-yl)anilino]-1-[(1R)-6-[1-(2-hydroxy-1,1-dimethyl-ethyl)pyrazol-4-yl]indan-1-yl]-2-oxo-ethyl]-1-fluoro-cyclopropanecarboxamide]	< 100
Cc1n[nH]c(C)c1-c1ccc(NC(=O)[C@@H](NC(=O)c2ccnn2C)[C@@H]2CCc3ccc(-c4cnn(CC(C)(C)O)c4)cc32)cc1 [Example 13, N-[(1S)-2-[4-(3,5-dimethyl-1H-pyrazol-4-yl)anilino]-1-[(1R)-6-[1-(2-hydroxy-2-methyl-propyl)pyrazol-4-yl]indan-1-yl]-2-oxo-ethyl]-2-methyl-pyrazole-3-carboxamide]	< 100
Cc1n[nH]c(C)c1-c1ccc(NC(=O)[C@@H](NC(=O)c2ccnn2C)[C@@H]2CCc3ccc(-c4ccnc(C(C)C)c4)cc32)cc1 [Example 14, N-[(1S)-2-[4-(3,5-dimethyl-1H-pyrazol-4-yl)anilino]-1-[(1R)-6-(2-isopropyl-4-pyridyl)indan-1-yl]-2-oxo-ethyl]-2-methyl-pyrazole-3-carboxamide]	< 100
Cc1n[nH]c(C)c1-c1ccc(NC(=O)[C@@H](NC(=O)c2ccnn2C)[C@@H]2CCc3ccc(-c4ccc5c(c4)CCN(C)C5)cc32)cc1 [Example 15, N-[(1S)-2-[4-(3,5-dimethyl-1H-pyrazol-4-yl)anilino]-1-[(1R)-6-(2-methyl-3,4-dihydro-1H-isoquinolin-6-yl)indan-1-yl]-2-oxo-ethyl]-2-methyl-pyrazole-3-carboxamide]	< 100
Cc1n[nH]c(C)c1-c1ccc(NC(=O)[C@@H](NC(=O)c2ccnn2C)[C@@H]2CCc3ccc(-c4ccnc(C(C)(C)O)c4)cc32)cc1 [Example 16, N-[(1S)-2-[4-(3,5-dimethyl-1H-pyrazol-4-yl)anilino]-1-[(1R)-6-[2-(1-hydroxy-1-methyl-ethyl)-4-pyridyl]indan-1-yl]-2-oxo-ethyl]-2-methyl-pyrazole-3-carboxamide]	< 100
Cc1n[nH]c(C)c1-c1ccc(NC(=O)[C@@H](NC(=O)c2ccnn2C)[C@@H]2CCc3ccc(-c4ccc5c(c4)CCNC5)cc32)cc1 [Example 17, N-[(1S)-2-[4-(3,5-dimethyl-1H-pyrazol-4-yl)anilino]-2-oxo-1-[(1R)-6-(1,2,3,4-tetrahydroisoquinolin-6-yl)indan-1-yl]ethyl]-2-methyl-pyrazole-3-carboxamide]	< 100
Cc1cc(-c2ccc3c(c2)[C@H]([C@H](NC(=O)c2ccnn2C)C(=O)Nc2ccc(-c4c(C)n[nH]c4C)cc2)CC3)ccc1CN1CCOCC1 [Example 18, N-[(1S)-2-[4-(3,5-dimethyl-1H-pyrazol-4-yl)anilino]-1-[(1R)-6-[3-methyl-4-(morpholinomethyl)phenyl]indan-1-yl]-2-oxo-ethyl]-2-methyl-pyrazole-3-carboxamide]	< 100
Cc1n[nH]c(C)c1-c1ccc(NC(=O)[C@@H](NC(=O)c2ccnn2C)[C@@H]2CCc3ccc(-c4ccc(CN5CCCC5)cc4)cc32)cc1 [Example 19, N-[(1S)-2-[4-(3,5-dimethyl-1H-pyrazol-4-yl)anilino]-2-oxo-1-[(1R)-6-[4-(pyrrolidin-1-ylmethyl)phenyl]indan-1-yl]ethyl]-2-methyl-pyrazole-3-carboxamide]	100 to 1000
Cc1n[nH]c(C)c1-c1ccc(NC(=O)[C@@H](NC(=O)c2ccnn2C)[C@@H]2CCc3ccc(-c4ccc(CN5CCCCC5)cc4)cc32)cc1 [Example 20, N-[(1S)-2-[4-(3,5-dimethyl-1H-pyrazol-4-yl)anilino]-2-oxo-1-[(1R)-6-[4-(1-piperidylmethyl)phenyl]indan-1-yl]ethyl]-2-methyl-pyrazole-3-carboxamide]	100 to 1000
Cc1n[nH]c(C)c1-c1ccc(NC(=O)[C@@H](NC(=O)c2ccnn2C)[C@@H]2CCc3ccc(-c4ccc(CN5CCC5)cc4)cc32)cc1 [Example 21, N-[(1S)-1-[(1R)-6-[4-(azetidin-1-ylmethyl)phenyl]indan-1-yl]-2-[4-(3,5-dimethyl-1H-pyrazole-4-yl)anilino]-2-oxo-ethyl]-2-methyl-pyrazole-3-carboxamide]	< 100
Cc1n[nH]c(C)c1-c1ccc(NC(=O)[C@@H](NC(=O)c2ccnn2C)[C@@H]2CCc3ccc(-c4cnn(C(C)(C)CN)c4)cc32)cc1 [Example 22, N-[(1S)-1-[(1R)-6-[1-(2-amino-1,1-dimethyl-ethyl)pyrazol-4-yl]indan-1-yl]-2-[4-(3,5-dimethyl-1H-pyrazol-4-yl)anilino]-2-oxo-ethyl]-2-methyl-pyrazole-3-carboxamide]	100 to 1000

More lines, now with the values ahead:

EC50 [nM]	SMILES
< 100	Cc1n[nH]c(C)c1-c1ccc(NC(=O)[C@@H](NC(=O)c2ccnn2C)[C@@H]2CCc3ccc(-c4cnn(C(C)(C)C)c4)cc32)cc1 [Example 4, N-[(1S)-1-[(1R)-6-(1-tert-butylpyrazol-4-yl)indan-1-yl]-2-[4-(3,5-dimethyl-1H-pyrazol-4-yl)anilino]-2-oxo-ethyl]-2-methyl-pyrazole-3-carboxamide]
< 100	Cc1n[nH]c(C)c1-c1ccc(NC(=O)[C@@H](NC(=O)c2ccnn2C)[C@@H]2CCc3ccc(-c4cnn(C5CCC5)c4)cc32)cc1 [Example 5, N-[(1S)-1-[(1R)-6-(1-cyclobutylpyrazol-4-yl)indan-1-yl]-2-[4-(3,5-dimethyl-1H-pyrazol-4-yl)anilino]-2-oxo-ethyl]-2-methyl-pyrazole-3-carboxamide]
< 100	Cc1n[nH]c(C)c1-c1ccc(NC(=O)[C@@H](NC(=O)C2(F)CC2)[C@@H]2CCc3ccc(-c4ccc(=O)n(C(C)C)c4)cc32)cc1 [Example 7, N-[(1S)-2-[4-(3,5-dimethyl-1H-pyrazol-4-yl)anilino]-1-[(1R)-6-(1-isopropyl-6-oxo-3-pyridyl)indan-1-yl]-2-oxo-ethyl]-1-fluoro-cyclopropanecarboxamide]
< 100	Cc1n[nH]c(C)c1-c1ccc(NC(=O)[C@@H](NC(=O)c2ccnn2C)[C@@H]2CCc3ccc(-c4cnn(C5CC5)c4)cc32)cc1 [Example 8, N-[(1S)-1-[(1R)-6-(1-cyclopropylpyrazol-4-yl)indan-1-yl]-2-[4-(3,5-dimethyl-1H-pyrazol-4-yl)anilino]-2-oxo-ethyl]-2-methyl-pyrazole-3-carboxamide]
< 100	Cc1n[nH]c(C)c1-c1ccc(NC(=O)[C@@H](NC(=O)C2(F)CC2)[C@@H]2CCc3ccc(-c4ccnc(N5CCNCC5)c4)cc32)cc1 [Example 9, N-[(1S)-2-[4-(3,5-dimethyl-1H-pyrazol-4-yl)anilino]-2-oxo-1-[(1R)-6-(2-piperazin-1-yl-4-pyridyl)indan-1-yl]ethyl]-1-fluoro-cyclopropanecarboxamide]
< 100	Cc1n[nH]c(C)c1-c1ccc(NC(=O)[C@@H](NC(=O)c2ccnn2C)[C@@H]2CCc3ccc(-c4ccc5c(c4)CN(C)C5)cc32)cc1 [Example 10, N-[(1S)-2-[4-(3,5-dimethyl-1H-pyrazol-4-yl)anilino]-1-[(1R)-6-(2-methylisoindolin-5-yl)indan-1-yl]-2-oxo-ethyl]-2-methyl-pyrazole-3-carboxamide]
< 100	Cc1n[nH]c(C)c1-c1ccc(NC(=O)[C@@H](NC(=O)c2ccnn2C)[C@@H]2CCc3ccc(-c4cnn(C(C)(C)CO)c4)cc32)cc1 [Example 11, N-[(1S)-2-[4-(3,5-dimethyl-1H-pyrazol-4-yl)anilino]-1-[(1R)-6-[1-(2-hydroxy-1,1-dimethyl-ethyl]pyrazol-4-yl]indan-1-yl]-2-oxo-ethyl]-2-methyl-pyrazole-3-carboxamide]
